According to PubChem BioAssay AID248 (DTP/NCI, 2004):
Inconclusive results and toxic doses are left out.

System: L1210 leukemia ip in BDF1 mice, survival T/C
Experiment: NCI In Vivo Anticancer Drug Screen. Data for tumor model L1210 Leukemia (intraperitoneal) in B6D2F1 (BDF1) mice
Conditions: endpoint: mean survival time, higher = longer survival
Method in brief: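 Antitumor effect is assessed in tumor-bearing animals. Survival in the compound arm is compared with a vehicle-dosed control arm and expressed as their quotient.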

[1] = dose: 100.0 mg/kg/injection, schedule: Q01DX001 (ip), vehicle: saline
[2] = dose: 100.0 mg/kg/injection, schedule: Q01DX009 (ip), vehicle: saline
[3] = dose: 200.0 mg/kg/injection, schedule: Q01DX001 (ip), vehicle: saline
[4] = dose: 200.0 mg/kg/injection, schedule: Q01DX009 (ip), vehicle: saline
[5] = dose: 400.0 mg/kg/injection, schedule: Q01DX001 (ip), vehicle: saline
[6] = dose: 400.0 mg/kg/injection, schedule: Q01DX009 (ip), vehicle: saline
[7] = dose: 100.0 mg/kg/injection, schedule: Q04DX003 (ip), vehicle: Klucel (hydroxypropylcellulose) (HPC)
[8] = dose: 200.0 mg/kg/injection, schedule: Q04DX003 (ip), vehicle: Klucel (hydroxypropylcellulose) (HPC)
[9] = dose: 400.0 mg/kg/injection, schedule: Q04DX003 (ip), vehicle: Klucel (hydroxypropylcellulose) (HPC)
[10] = dose: 100.0 mg/kg/injection, schedule: Q04DX002 (ip), vehicle: saline with Tween-80
[11] = dose: 200.0 mg/kg/injection, schedule: Q04DX002 (ip), vehicle: saline with Tween-80
[12] = dose: 400.0 mg/kg/injection, schedule: Q04DX002 (ip), vehicle: saline with Tween-80
[13] = dose: 100.0 mg/kg/injection, schedule: Q04DX003 (ip), vehicle: saline
[14] = dose: 200.0 mg/kg/injection, schedule: Q04DX003 (ip), vehicle: saline
[15] = dose: 400.0 mg/kg/injection, schedule: Q04DX003 (ip), vehicle: saline
[16] = dose: 100.0 mg/kg/injection, schedule: Q01DX009 (ip), vehicle: saline with Tween-80
[17] = dose: 200.0 mg/kg/injection, schedule: Q01DX009 (ip), vehicle: saline with Tween-80
[18] = dose: 400.0 mg/kg/injection, schedule: Q01DX009 (ip), vehicle: saline with Tween-80
[19] = dose: 100.0 mg/kg/injection, schedule: Q01DX001 (ip), vehicle: carboxymethylcellulose (CMC)
[20] = dose: 200.0 mg/kg/injection, schedule: Q01DX001 (ip), vehicle: carboxymethylcellulose (CMC)
[21] = dose: 400.0 mg/kg/injection, schedule: Q01DX001 (ip), vehicle: carboxymethylcellulose (CMC)
[22] = dose: 100.0 mg/kg/injection, schedule: Q04DX003 (ip), vehicle: saline with Tween-80
[23] = dose: 200.0 mg/kg/injection, schedule: Q04DX003 (ip), vehicle: saline with Tween-80
[24] = dose: 400.0 mg/kg/injection, schedule: Q04DX003 (ip), vehicle: saline with Tween-80
[25] = dose: 25.0 mg/kg/injection, schedule: Q04DX002 (ip), vehicle: Klucel (hydroxypropylcellulose) (HPC)
[26] = dose: 50.0 mg/kg/injection, schedule: Q04DX002 (ip), vehicle: Klucel (hydroxypropylcellulose) (HPC)
[27] = dose: 50.0 mg/kg/injection, schedule: Q01DX009 (ip), vehicle: saline with Tween-80

O=S(O)O was tested, and the T/C [1] was 95 % of control, the T/C [2] was 103 % of control and the T/C [3] was 97 % of control. For the same compound, the T/C [4] was 97 % of control, the T/C [5] was 103 % of control and the T/C [6] was 100 % of control.

O=P1(CCc2ccc(Br)cc2)CC(Br)C(Br)C1 (stereo unspecified) was tested, and the T/C [7] was 104 % of control, the T/C [8] was 106 % of control and the T/C [9] was 96 % of control.

For CN(N)c1nc2c(N)ncnc2n1C1OC(CO)C(O)C1O (stereo unspecified), the T/C (dose: 12.5 mg/kg/injection, schedule: Q01DX005 (ip), vehicle: saline) was 97 % of control, the T/C (dose: 25.0 mg/kg/injection, schedule: Q01DX005 (ip), vehicle: saline) was 108 % of control and the T/C (dose: 50.0 mg/kg/injection, schedule: Q01DX005 (ip), vehicle: saline) was 100 % of control.

With CN(C)c1ccc(Cc2ccc(N(C)C)nc2)cn1 the T/C [7] was 110 % of control, the T/C [8] was 102 % of control and the T/C [9] was 100 % of control.

For COc1ccc2c3c1OC1CC(O)C=CC31CCN(C)C2 (stereo unspecified), the T/C (dose: 2.5 mg/kg/injection, schedule: Q01DX009 (ip), vehicle: saline) was 102 % of control, the T/C (dose: 2.9 mg/kg/injection, schedule: Q01DX Z (ip), vehicle: saline) was 105 % of control and the T/C (dose: 5.0 mg/kg/injection, schedule: Q01DX009 (ip), vehicle: saline) was 107 % of control.

For COC(=O)C1(C)CSCCC1=O (stereo unspecified), the T/C (dose: 100.0 mg/kg/injection, schedule: Q01DX009 (ip), vehicle: other) was 94 % of control, the T/C (dose: 200.0 mg/kg/injection, schedule: Q01DX009 (ip), vehicle: other) was 94 % of control and the T/C (dose: 400.0 mg/kg/injection, schedule: Q01DX009 (ip), vehicle: other) was 99 % of control.

In the case of CN(C)N=Nc1nn(C2CCCO2)cc1C(N)=O (stereo unspecified), the T/C (dose: 100.0 mg/kg/injection, schedule: Q01DX005 (ip), vehicle: saline) is reported as 150 % of control.

For CC1(CO)CC2C=CC1C2 (stereo unspecified), the T/C [10] was 99 % of control, the T/C [11] was 99 % of control and the T/C [12] was 99 % of control.

OCC1(O)CCC1 was tested, and the T/C [2] was 102 % of control, the T/C [13] was 94 % of control and the T/C [4] was 99 % of control. For the same compound, the T/C [14] was 103 % of control, the T/C [6] was 107 % of control and the T/C [15] was 96 % of control.

In the case of CC(C)c1ccc(C(=O)C(O)c2ccc(C(C)C)cc2)cc1 (stereo unspecified), the T/C [16] is reported as 93 % of control, the T/C [17] is reported as 97 % of control and the T/C [18] is reported as 97 % of control.

CSC(=O)SC was tested, and the T/C [16] was 101 % of control.

With N#C/C=C/C1=CCCCC1 the T/C [13] was 101 % of control, the T/C [14] was 97 % of control and the T/C [15] was 93 % of control.

In the case of CCCCC(=O)N/N=C\c1cccc([N+](=O)[O-])c1, the T/C [19] is reported as 92 % of control, the T/C [20] is reported as 92 % of control and the T/C [21] is reported as 95 % of control.

For CCCCCC(Br)C(Br)CC(Br)C(Br)CCCCCCCC(=O)O (stereo unspecified), the T/C (dose: 100.0 mg/kg/injection, schedule: Q01DX009 (ip), vehicle: Klucel (hydroxypropylcellulose) (HPC)) was 95 % of control, the T/C [7] was 98 % of control and the T/C [22] was 98 % of control. The T/C (dose: 200.0 mg/kg/injection, schedule: Q01DX009 (ip), vehicle: Klucel (hydroxypropylcellulose) (HPC)) was 90 % of control, the T/C [23] was 97 % of control and the T/C (dose: 400.0 mg/kg/injection, schedule: Q01DX009 (ip), vehicle: Klucel (hydroxypropylcellulose) (HPC)) was 93 % of control. For the same compound, the T/C [9] was 93 % of control and the T/C [24] was 91 % of control.

For COCCOC(N)=O, the T/C [1] was 105 % of control, the T/C [3] was 115 % of control and the T/C [5] was 95 % of control.

For CC(CC12CC3CC(CC(C3)C1)C2)NN (stereo unspecified), the T/C [25] was 101 % of control and the T/C [26] was 86 % of control.

With C=CCC/C(=N\NC(N)=O)c1ccccc1 the T/C (dose: 75.0 mg/kg/injection, schedule: Q01DX001 (ip), vehicle: acetone) was 99 % of control, the T/C (dose: 150.0 mg/kg/injection, schedule: Q01DX001 (ip), vehicle: acetone) was 91 % of control and the T/C (dose: 300.0 mg/kg/injection, schedule: Q01DX001 (ip), vehicle: acetone) was 110 % of control.

With CC1(C)CCCC2(C)C(C(=O)O)C3CCC45OC3(CC12)OC(=O)C4C1(C)CCCC(C)(C)C1CC5=O (stereo unspecified) the T/C [1] was 101 % of control, the T/C [3] was 107 % of control and the T/C [5] was 109 % of control.

For CC(C)CC(=O)/C=C/C=C/c1ccccc1, the T/C [10] was 101 % of control, the T/C [11] was 95 % of control and the T/C [12] was 111 % of control.

In the case of CCOC(=O)c1ccc(N=CNc2ccc(C(=O)OCC)cc2)cc1, the T/C (dose: 12.5 mg/kg/injection, schedule: Q01DX001 (ip), vehicle: other) is reported as 106 % of control, the T/C (dose: 12.5 mg/kg/injection, schedule: Q01DX009 (ip), vehicle: saline with Tween-80) is reported as 100 % of control and the T/C (dose: 12.5 mg/kg/injection, schedule: Q04DX003 (ip), vehicle: saline with Tween-80) is reported as 96 % of control. The T/C (dose: 25.0 mg/kg/injection, schedule: Q01DX001 (ip), vehicle: other) was 95 % of control, the T/C (dose: 25.0 mg/kg/injection, schedule: Q01DX009 (ip), vehicle: saline with Tween-80) was 93 % of control and the T/C (dose: 25.0 mg/kg/injection, schedule: Q04DX003 (ip), vehicle: saline with Tween-80) was 95 % of control. For the same compound, the T/C (dose: 50.0 mg/kg/injection, schedule: Q01DX001 (ip), vehicle: other) was 93 % of control, the T/C [27] was 96 % of control and the T/C (dose: 50.0 mg/kg/injection, schedule: Q04DX003 (ip), vehicle: saline with Tween-80) was 95 % of control.

For CCN(CC)CCOC(=O)c1ccco1, the T/C (dose: 50.0 mg/kg/injection, schedule: Q01DX009 (ip), vehicle: saline) was 96 % of control, the T/C [2] was 103 % of control and the T/C [4] was 100 % of control.

In the case of COC1/C=C/OC2(C)Oc3c(C)c(O)c4c(O)c(c(/C=N/N(C)c5ncnc6c5ncn6C5OC(CO)C(O)C5O)c(O)c4c3C2=O)NC(=O)C(C)=C/C=C/C(C)C(O)C(C)C(O)C(C)C(OC(C)=O)C1C (stereo unspecified), the T/C [4] is reported as 87 % of control and the T/C [6] is reported as 94 % of control.

CC(C)c1cc[n+]([O-])cc1 was tested, and the T/C [27] was 94 % of control, the T/C [16] was 94 % of control and the T/C [17] was 91 % of control.

CN(C)N=Nc1ccc(S(=O)(=O)N(CCCl)CCCl)cc1 was tested, and the T/C (dose: 12.5 mg/kg/injection, schedule: Q04DX002 (ip), vehicle: Klucel (hydroxypropylcellulose) (HPC)) was 100 % of control, the T/C [25] was 96 % of control and the T/C [26] was 103 % of control. For the same compound, the T/C (dose: 100.0 mg/kg/injection, schedule: Q04DX002 (ip), vehicle: Klucel (hydroxypropylcellulose) (HPC)) was 120 % of control, the T/C (dose: 200.0 mg/kg/injection, schedule: Q04DX002 (ip), vehicle: Klucel (hydroxypropylcellulose) (HPC)) was 103 % of control and the T/C (dose: 400.0 mg/kg/injection, schedule: Q04DX002 (ip), vehicle: Klucel (hydroxypropylcellulose) (HPC)) was 95 % of control.

CC(C)c1ccccc(=O)c1O.CC(C)c1ccccc(=O)c1O.[Cu] was tested, and the T/C [23] was 91 % of control.

In the case of CCCCN(C)CCNc1cc(C)nc(/N=C(\N)Nc2ccc(Cl)c(Cl)c2)n1, the T/C (dose: 18.75 mg/kg/injection, schedule: Q01DX009 (ip), vehicle: Klucel (hydroxypropylcellulose) (HPC)) is reported as 103 % of control and the T/C (dose: 37.5 mg/kg/injection, schedule: Q01DX009 (ip), vehicle: Klucel (hydroxypropylcellulose) (HPC)) is reported as 97 % of control.

In the case of CCCCCCCCCCCCSC1=NS(=O)(=O)c2ccccc21, the T/C [7] is reported as 106 % of control, the T/C [8] is reported as 94 % of control and the T/C [9] is reported as 90 % of control.

O=C(OC(c1ccccc1)c1ccccc1)c1ccc([N+](=O)[O-])cc1 was tested, and the T/C [19] was 98 % of control, the T/C [20] was 104 % of control and the T/C [21] was 96 % of control.

OC(C(c1ccccc1)c1ccccn1)(C(F)(F)F)C(F)(F)F (stereo unspecified) was tested, and the T/C [16] was 106 % of control, the T/C [22] was 94 % of control and the T/C [17] was 104 % of control. The T/C [23] was 100 % of control, the T/C [18] was 97 % of control and the T/C [24] was 97 % of control.
